According to patent US8658646B2, “Pyrrolopyrazine kinase inhibitors” (Hoffmann-LaRoche Inc., priority 2011, dated 2014):

Target: T1, recombinant human SYK360-635 (Homo sapiens, UniProt P43405)
T1 construct: made in house
Experiment: Determination of IC50 of Spleen Tyrosine Kinase (SYK) inhibition, 33P ATP filtration assay
Assay type: biochemical
Settings: SYK aa 360-635 0.5 nM; ATP 20 μM, peptide 5 μM, 0.1% BSA; read-out: SYK_ENZYME_FILTRATION/v1, BSA

| Structure (SMILES) | IC50 [nM] |
| --- | --- |
| NC(=O)c1c[nH]c2ncc(-c3nn(CC(=O)N4CCOCC4)c4cc(F)ccc34)nc12 [Example I-314, 2-[6-Fluoro-1-(2-morpholin-4-yl-2-oxo-ethyl)-1H-indazol-3-yl]-5H-pyrrolo[2,3-b]pyrazine-7-carboxylic acid amide] | 155 |
| Cn1nc(-c2cnc3[nH]cc(C(=O)NC(C)(C)C4CC4)c3n2)c2ccc(Cl)cc21 [Example I-401, 2-(6-Chloro-1-methyl-1H-indazol-3-yl)-5H-pyrrolo[2,3-b]pyrazine-7-carboxylic acid (1-cyclopropyl-1-methyl-ethyl)-amide] | 18.5 |
| Cc1ccc2cnn(-c3cnc4[nH]cc(C(=O)NC(C)(C)C)c4n3)c2c1 [Example I-331, 2-(6-Methyl-indazol-1-yl)-5H-pyrrolo[2,3-b]pyrazine-7-carboxylic acid tert-butylamide] | 69.5 |
| Cn1nc(-c2cnc3[nH]cc(C(=O)NC4(CN)CC4)c3n2)c2ccc(F)cc21 [Example I-443, 2-(6-Fluoro-1-methyl-1H-indazol-3-yl)-5H-pyrrolo[2,3-b]pyrazine-7-carboxylic acid (1-aminomethyl-cyclopropyl)-amide] | 656 |
| Cc1ccc2c(-c3cnc4[nH]cc(C(=O)NC(C)(C)CO)c4n3)nn(CC(=O)N3CCOCC3)c2c1 [Example I-439, 2-[6-Methyl-1-(2-morpholin-4-yl-2-oxo-ethyl)-1H-indazol-3-yl]-5H-pyrrolo[2,3-b]pyrazine-7-carboxylic acid (2-hydroxy-1,1-dimethyl-ethyl)-amide] | 9.7 |
| CC(C)(C)NC(=O)c1c[nH]c2ncc(-n3ncc4cc(F)ccc43)nc12 [Example I-326, 2-(5-Fluoro-indazol-1-yl)-5H-pyrrolo[2,3-b]pyrazine-7-carboxylic acid tert-butylamide] | 43.4 |
| CC(C)NC(=O)c1c[nH]c2ncc(-c3nn(Cc4ccccc4)c4cc(Cl)ccc34)nc12 [Example I-308, 2-(1-Benzyl-6-chloro-1H-indazol-3-yl)-5H-pyrrolo[2,3-b]pyrazine-7-carboxylic acid isopropylamide] | 860 |
| CC(C)(C)NC(=O)c1c[nH]c2ncc(-n3ncc4cc(C(F)(F)F)ccc43)nc12 [Example I-337, 2-(5-Trifluoromethyl-indazol-1-yl)-5H-pyrrolo[2,3-b]pyrazine-7-carboxylic acid tert-butylamide] | 595 |
| Cc1ccc2c(-c3cnc4[nH]cc(C(=O)NC5(CO)CC5)c4n3)n[nH]c2c1 [Example I-432, 2-(6-Methyl-1H-indazol-3-yl)-5H-pyrrolo[2,3-b]pyrazine-7-carboxylic acid (1-hydroxymethyl-cyclopropyl)-amide] | 5.6 |
| Cc1ccc2c(cnn2-c2cnc3[nH]cc(C(=O)NC(C)(C)C)c3n2)c1 [Example I-333, 2-(5-Methyl-indazol-1-yl)-5H-pyrrolo[2,3-b]pyrazine-7-carboxylic acid tert-butylamide] | 63.9 |
| CC(O)C(C)(C)NC(=O)c1c[nH]c2ncc(-c3nn(C)c4cc(Cl)ccc34)nc12 (stereo not drawn) [Example I-413, 2-(6-Chloro-1-methyl-1H-indazol-3-yl)-5H-pyrrolo[2,3-b]pyrazine-7-carboxylic acid (2-hydroxy-1,1-dimethyl-propyl)-amide] | 34.6 |
| CC(C)NC(=O)c1c[nH]c2ncc(-c3nn(C)c4ccc(C(C)O)cc34)nc12 (stereo not drawn) [Example I-269, 2-[5-(1-Hydroxy-ethyl)-1-methyl-1H-indazol-3-yl]-5H-pyrrolo[2,3-b]pyrazine-7-carboxylic acid isopropylamide] | 22.1 |
| Cn1nc(-c2cnc3[nH]cc(C(=O)NC4CCCC(N)C4)c3n2)c2ccc(Cl)cc21 (stereo not drawn) [Example I-403, 2-(6-Chloro-1-methyl-1H-indazol-3-yl)-5H-pyrrolo[2,3-b]pyrazine-7-carboxylic acid (3-amino-cyclohexyl)-amide] | 13.6 |
| Cc1ccc2c(-c3cnc4[nH]cc(C(=O)NC(C)(C)C5CC5)c4n3)nn(C)c2c1 [Example I-428, 2-(1,6-Dimethyl-1H-indazol-3-yl)-5H-pyrrolo[2,3-b]pyrazine-7-carboxylic acid (1-cyclopropyl-1-methyl-ethyl)-amide] | 11.9 |
| COc1ccc2c(cnn2-c2cnc3[nH]cc(C(=O)NC(C)(C)C)c3n2)c1 [Example I-323, 2-(5-Methoxy-indazol-1-yl)-5H-pyrrolo[2,3-b]pyrazine-7-carboxylic acid tert-butylamide] | 25.6 |
| Cn1nc(-c2cnc3[nH]cc(C(=O)NC(C)(C)CN)c3n2)c2ccc(F)cc21 [Example I-379, 2-(6-Fluoro-1-methyl-1H-indazol-3-yl)-5H-pyrrolo[2,3-b]pyrazine-7-carboxylic acid (2-amino-1,1-dimethyl-ethyl)-amide] | 145 |

Results, then the molecule that gave them:

| IC50 [nM] | Structure (SMILES) |
| --- | --- |
| 3.22 | COc1ccc2c(c1)c(-c1cnc3[nH]cc(C(=O)NC(C)(C)C)c3n1)nn2C [Example I-287, 2-(5-Methoxy-1-methyl-1H-indazol-3-yl)-5H-pyrrolo[2,3-b]pyrazine-7-carboxylic acid tert-butylamide] |
| 6.85 | Cn1nc(-c2cnc3[nH]cc(C(=O)NC(C)(C)C)c3n2)c2cc(C#N)ccc21 [Example I-260, 2-(5-Cyano-1-methyl-1H-indazol-3-yl)-5H-pyrrolo[2,3-b]pyrazine-7-carboxylic acid tert-butylamide] |
| 5.98 | CC(C)(C)NC(=O)c1c[nH]c2ncc(-c3nn(CC4CNC4)c4ccc(OC(F)F)cc34)nc12 [Example I-350, 2-(1-Azetidin-3-ylmethyl-5-difluoromethoxy-1H-indazol-3-yl)-5H-pyrrolo[2,3-b]pyrazine-7-carboxylic acid tert-butylamide] |
| 2.7 | CC(O)CCn1nc(-c2cnc3[nH]cc(C(=O)NC(C)(C)C)c3n2)c2cc(OC(F)F)ccc21 (stereo not drawn) [Example I-447, N-tert-Butyl-2-(5-(difluoromethoxy)-1-(3-hydroxybutyl)-1H-indazol-3-yl)-5H-pyrrolo[3,2-b]pyrazine-7-carboxamide] |
| 19.9 | CC(C)(C)NC(=O)c1c[nH]c2ncc(-c3nn(CC(F)(F)F)c4cc(F)ccc34)nc12 [Example I-418, 2-[6-Fluoro-1-(2,2,2-trifluoro-ethyl)-1H-indazol-3-yl]-5H-pyrrolo[2,3-b]pyrazine-7-carboxylic acid tert-butylamide] |
| 73.6 | Cn1nc(-c2cnc3[nH]cc(C(=O)NC(C)(C)C)c3n2)c2cc(C(F)(F)F)ccc21 [Example I-412, 2-(1-Methyl-5-trifluoromethyl-1H-indazol-3-yl)-5H-pyrrolo[2,3-b]pyrazine-7-carboxylic acid tert-butylamide] |
| 17.9 | CN(C)C(=O)CCn1nc(-c2cnc3[nH]cc(C(=O)NC(C)(C)C)c3n2)c2cc(OC(F)F)ccc21 [Example I-339, 2-[5-Difluoromethoxy-1-(2-dimethylcarbamoyl-ethyl)-1H-indazol-3-yl]-5H-pyrrolo[2,3-b]pyrazine-7-carboxylic acid tert-butylamide] |
| 46.9 | Cn1nc(-c2cnc3[nH]cc(C(=O)NC(C)(C)C)c3n2)c2cc(OCCCC(C)(C)N)ccc21 [Example I-449, 2-(5-(4-Amino-4-methylpentyloxy)-1-methyl-1H-indazol-3-yl)-N-tert-butyl-5H-pyrrolo[3,2-b]pyrazine-7-carboxamide 2,2,2-trifluoroacetate] |
